From US20100022600A1, “METHODS AND COMPOSITIONS FOR TREATING CENTRAL NERVOUS SYSTEM TUMORS” (priority 2006, published 2010)

How the values were obtained:
[1] = test system: C6 glioma cells injected in rat striata; assay: C6 rat glioma model, tumor volume and histology; format: in vivo; conditions: for reduction of tumor volume compared to vehicle: 21 d
Experimental: Spraque-Dawley rats (Charles River Laboratories, Sulzfeld, Germany), weighting 200-250 g were used. Animals were housed in groups of two under standard conditions at a temperature of 22° C.±1 and a 12-h light-dark cycle with free access to food and water. Experiments were carried out in accordance with the declaration of Helsinki and were approved by the local ethical committee for animal experiments. Before implantation, 85-90% confluent C6 cells were trypsinized, rinsed with DMEM+10% fetal calf serum, and centrifuged at 1000 rpm for 4 min. The cell pellet was resuspended in DMEM and placed on ice. Concentration of viable cells was adjusted to 1×10^5 cells/1 μl of DMEM. Each rat was anesthetized and placed in a stereotactic frame (David Kopf Instruments, Tujunga, Calif., USA), a hole was drilled at AP 0.0, R -3.0 relative to bregma according to the stereotaxic atlas of […], 1963). Tumor cells were injected at a rate of 0.5 μl/s, using a 2 μl Hamilton (#2701) syringe (Reno, Nev., USA) with a 26 s-gauge needle mounted on a stereotactic holder at a depth of 5 mm. […] For intracerebral administration of pio/vehicle (DMSO), the tip of an Alzet-brain-infusion-kit (Cupertino, Calif., USA) was placed in a depth of 5 mm, connected to a 2ML4 Alzet osmotic pump (Cupertino, Calif., USA). Drug administration began 4 h after surgery. […] The pumps were filled with 20 μM pio solved in PBS or vehicle (DMSO, 0.1% final concentration) solved in PBS. Animals were randomly distributed in two groups, treated with pio filled pumps (n=26) or vehicle filled pumps (n=26). Thereafter skull was cleaned and the incision sutured. […] Control animals received Purina chow without additions. Rats were allowed free access to the chow. Tumors were allowed to grow and animals were weighed daily. […] Brains were serially sectioned at 10 μm using a cryostat (Leica, Jung CMI800, Germany). Sections for hematoxylin-eosin (HE)-staining were placed onto uncoated slides. Sections intended for use in immunoreactivity assays were placed onto coded slides (Fisher finest, premium; Houston, Tex., USA). Sections were routinely HE-stained for histomorphological assessment and measurement of tumor volume as well as immunohistochemically processed for Ki-67-, BAX, cleaved caspase-3-expression, MMP9, CS-56 and BrdU-incorporation. Images of HE-stained sections containing the tumor were captured with a SPOT model 1.3 camera (Diagnostic Instruments, Inc., Sterling Heights, Mich., USA) using a 1× objective and images processed using NIH Image 1.62 software (Bethesda, Md., USA). The tumor area of each section was manually outlined by a blinded observer using the freehand selection tool to measure tumor area in mm^2. The area was then multiplied by the section thickness (10 μm section, 10 sections/HE stain) to achieve a section volume measurement. Volumes of all sections were added to calculate the total volume of each tumor. Tumor volumes for five/six animals of every group were measured.

MMP-9 = MMP-9 expression in vivo (western blot, immunohistochemistry); design: species or system rat
Experimental: For western-blot analysis, tumor-containing hemispheres were homogenized in Tris-HCl [50 mM Tris-HCl pH8, 120 mM NaCl, 5 mM EDTA, 0.5% (v/v) NP-40, […] phenylmethylsulfonyl fluoride (PMSF)] and sonicated. Homogenates were collected by centrifugation (15 min 11000 g. 4° C.) and protein concentration in the supernatant was determined using the Bio-Rad Protein Assay (Biorad, Munich, Germany). Lysates (20-40 μg) were separated on a 7% (w/v) sodium dodecyl sulfate (SDS)-polyacrylamide gel under reducing conditions and transferred to a PVDF membrane (Millipore, Bedford, Mass., USA). Non-specific binding was blocked by incubation with 5% (w/v) skimmed milk in TBS for 2 h. Following incubation with the primary antibody overnight at 4° C. [rabbit anti-BAX 1:1000, rabbit anti-cleaved caspase-3 1:1000, mouse […] 1:1000, goat anti-MMP-9 1:1000 in TBS containing 0.1% (v/v) Tween 20] membranes were washed three times in TBS/Tween for 5 min and subsequently incubated for 120 min in TBS/Tween containing secondary peroxidase-conjugated antibody at room temperature (anti-rabbit 1:1000, anti-mouse 1:1000; anti-goat 1:1000 respectively). Signals were visualized by chemoluminescence (Pierce, Rockford, Ill., USA) and band intensities were quantified with NIH Image 1.62 software (Bethesda, Md., USA). Frozen brain sections were first blocked with 5% normal goat serum or normal horse serum in PBS and subsequently incubated with rabbit anti-Ki-67 antibody (1:200 dilution), mouse anti-CS-56 (1:100 dilution), goat anti-MMP-9 (1:100 dilution) or rabbit anti-cleaved caspase-3 antibody (1:200 dilution) at 4° C. overnight. Sections were washed extensively with PBS before incubation with secondary antibodies. Incubation was carried at room temperature for 1 h. After washing with PBS three times, stained slides were mounted with PBS/glycerol (1:1) and viewed under a fluorescent microscope (Leica, Germany).

primary astrocytes = assay: MTT viability assay, primary astrocytes; format: cell-based; conditions: 1, 10, 30 μM; 1, 3, 5, 7 d
Experimental: Rat C6 glioma cells were grown in DMEM and human glioma cells (U87, A172) in RPMI, supplemented with 10% (v/v) fetal calf serum, 100 U/mL penicillin and 100 U/mL streptomycin in a 5% CO2 atmosphere. Primary astrocyte cultures were prepared as described previously (J Neurosci 1998; 18: 4451-60) and grown in DMEM, supplemented with 2.5% (v/v) fetal calf serum, 100 U/mL penicillin and 100 U/mL streptomycin in a 5% CO2 atmosphere. […] Experiments were performed in triplicate.

Structure (SMILES): CCc1ccc(CCOc2ccc(CC3SC(=O)NC3=O)cc2)nc1 (stereo not shown) [pioglitazone, 5-[4-[2-(5-ethylpyridin-2-yl)ethoxyl]benzyl]thiazolidine-2,4-dione]
- tumor volume compared to vehicle, in words ([1]; intracerebral, 3 and 6 days): no significant differences
- tumor volume compared to vehicle, in words ([1]; intracerebral, 9, 14 and 21 days): decreased significantly
- reduction of tumor volume compared to vehicle ([1]; intracerebral, pio 20 μM via osmotic pump): 83%
- reduction of tumor volume compared to vehicle ([1]; oral treatment (in chow)): 77%
- reduction of tumor volume compared to vehicle ([1]; oral treatment (in chow), listed as pio): 76.9%
- histological evaluation of tumor margins and invasiveness ([1]; pio treated in vivo gliomas): more defined tumor margins and decreased invasiveness
- MMP-9 positive staining (immunoreactivity) (MMP-9; tumor margins and surrounding healthy brain tissue): reduced MMP-9 positive staining
- MMP-9 expression (western blot) (MMP-9; whole-hemisphere lysates): almost completely suppressed
- reduction of MMP-9 expression (densitometry) (MMP-9; whole-hemisphere lysates): 81%
- viability of primary astrocytes (primary astrocytes): not affected
